Test results reported in patent publication US20240269144A1, “METHODS AND KITS FOR THE DETECTION OF MALIGNANCIES” (H. LEE MOFFITT CANCER CENTER AND RESEARCH INSTITUTE, INC., priority 2021, published 2024).
Like-named read-outs stand apart in the source and are kept apart here.

Experiments:
malignant T cells = experiment: EVOS drug assay (Cytolight Rapid Green / Cytox Red) on malignant T cells; format: cell-based
Protocol: FIGS. 9A, 9B, 9C, and 9D show the effects various anti-cancer agents on malignant T cells. Cells are stained green with the Cytolight Rapid Green Dye—freely pass thru the membrane, however, once inside the dye is transformed into cell-impermeant probe transferred to daughter cells. Once the cells have been stained the dye is removed. Stains live cells. Then the Cytox Red is added and left in the media. Cytox Red moves inside the cells when the cell membrane is compromised. Assays were read at 0, 6, 12, 18 and 24 hrs. Each timepoint is analyzed separately for the designated concentration of Palbociclib (CDK4/6 inhibitor)(9A), Omacetaxine mepesuccinate (HHT)(9B), CX5461 (rRNA synthesis inhibitor)(9C), or BTZO-1 (MIF inhibitor)(9D).
To see the effect of various inhibitors on malignant T cells, we an EVOS drug assay (FIG. 9) measuring varying concentrations and time points for Palbociclib (CDK4/6 inhibitor)(FIG. 9A), Omacetaxine mepesuccinate (HHT)(FIG. 9B), CX5461 (rRNA synthesis inhibitor)(FIG. 9C), and BTZO-1 (MIF inhibitor)(FIG. 9D). By 12 hours, killing of malignant T cells was observed reaching a maximum for all drugs by […].

[1] = tested on: T-cell lymphoma lines Myla (MF), HH (MF—leukemic phase), Hu78 (SS); experiment: OXPHOS inhibitor apoptosis assay (Annexin V/PI), T-cell lymphoma cell lines; format: cell-based
[2] = tested on: acute myeloid leukemia and mantle cell lymphoma tumor cells; conditions: pre-clinical models of acute myeloid leukemia and mantle cell lymphoma; cited from earlier work
[3] = tested on: T-cell lymphoma lines Myla (MF), HH (MF—leukemic phase), Hu78 (SS)
Protocol: MYC inhibitor (MYCi975) cell proliferation assay (right). Indicated cell lines were seeded on 96-well plates and treated with different dose of MYCi975 for 5 days. At day 5, cells were incubated with MTS reagent following manufacture's protocol (Promega Cat #G3580). Absorbance at OD490 nm was recorded and percentage of growth were normalized to vehicle control. Half maximal inhibitory concentration (IC50) was calculated based on curve fitting result using non-linear regression function of GraphPad Prism 8. The symbol represents the mean. The error bars represent the mean±s.e.m. n=12 (MyLa and Jurkat); n=8 (HH, MJ, Hu78).
To determine the sensitivity of CTCL and other T cell lymphomas to OXPHOS and MYC inhibition, we performed pharmacologic perturbation assays using IACS10759 and MYCi975 in MF and other TCL cell lines (FIG. 4F).
Established T-cell lymphoma lines were used for drug assays, including Myla (MF; Sigma Aldrich Cat #95051032), HH (MF—leukemic phase; ATCC Cat #CRL-2105), and Hu78 (SS; ATCC Cat #TIB-161), Jurkat (ATLL) and MJ (ATLL; ATCC Cat #8294).

MYC = MYC (Homo sapiens, UniProt P01106); conditions: cited from earlier work
CTCL = conditions: MAVORIC trial, cited from earlier work
[4] = malignant T cells, at maximum killing
[5] = in vitro pharmacologic studies, CTCL cell lines

Sequence of MYC (P01106 whole entry, species assumed): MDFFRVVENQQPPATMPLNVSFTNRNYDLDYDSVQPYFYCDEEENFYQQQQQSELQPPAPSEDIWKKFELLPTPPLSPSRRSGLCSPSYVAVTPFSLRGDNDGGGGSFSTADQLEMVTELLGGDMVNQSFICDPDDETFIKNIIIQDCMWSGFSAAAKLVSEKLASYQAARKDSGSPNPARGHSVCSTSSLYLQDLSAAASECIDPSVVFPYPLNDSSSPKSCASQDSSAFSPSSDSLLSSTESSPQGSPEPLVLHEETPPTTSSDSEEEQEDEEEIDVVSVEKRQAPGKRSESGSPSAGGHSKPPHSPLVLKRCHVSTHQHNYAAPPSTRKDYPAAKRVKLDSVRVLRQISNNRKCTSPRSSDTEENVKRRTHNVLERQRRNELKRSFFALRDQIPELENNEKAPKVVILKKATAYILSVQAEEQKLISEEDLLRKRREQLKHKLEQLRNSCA

With `O=c1nc(-c2ccccn2)sc2ccccc12` [BTZO-1] the “target cells remaining viable after treatment” value (“target cells remaining viable” for short) (malignant T cells) was 50%.

For `Cc1cnc(CNC(=O)c2c(=O)c3ccc(N4CCCN(C)CC4)nc3n3c2sc2ccccc23)cn1` [CX5461], the “target cells remaining viable” value (malignant T cells; [4]) was 60-70%.

With `COC(=O)C[C@](O)(CCCC(C)(C)O)C(=O)O[C@@H]1C(OC)=C[C@]23CCCN2CCc2cc4c(cc2[C@H]13)OCO4` [HHT, Omacetaxine mepesuccinate] the “target cells remaining viable” value (malignant T cells; [4]) was 50%.

In the case of `Cc1nc(-c2nc(-c3ccc(OC(F)(F)F)cc3)no2)nn1Cc1cccc(N2CCC(S(C)(=O)=O)CC2)c1` [IACS-010759], the “sensitivity to IACS-010759 as assessed by apoptosis” value ([1]; Myla, HH, Hu78, particularly for Myla, 8 nM, 5 days, Annexin V+PI+) is listed as “low nanomolar sensitivity”, the “anti-tumor activity in vitro (OXPHOS inhibitor)” value [1, 5] is listed as “potent anti-tumor activity” and the “effect of OXPHOS inhibition on tumor cells” value [2] is listed as “inhibition of tumor cell proliferation and induction of apoptosis”.

For `Cn1nc(C(F)(F)F)cc1-c1ccc(OCc2ccc(Cl)cc2)c(-c2ccc(Cl)c(C(F)(F)F)c2)c1O` [MYCi975], the “sensitivity to MYCi975 as assessed by cell proliferation, cell viability and cytotoxicity (MTS assay)” value [3] is listed as “low micromolar sensitivity”, the “anti-tumor activity in vitro (MYC inhibitor)” value [3, 5] is listed as “potent anti-tumor activity” and the “preclinical in-vivo activity against MYC” value (MYC) is listed as “potent preclinical in-vivo activity against MYC”.

In the case of `CC(=O)c1c(C)c2cnc(Nc3ccc(N4CCNCC4)cn3)nc2n(C2CCCC2)c1=O` [Palbociclib], the “target cells remaining viable” value (malignant T cells; [4]) is reported as 50%.

B1: mogamulizumab: anti-CCR4, FDA approved breakthrough therapy for CTCL (antibody, chains of the INN, looked up, V domains shown)
VH: EVQLVESGGDLVQPGRSLRLSCAASGFIFSNYGMSWVRQAPGKGLEWVATISSASTYSYYPDSVKGRFTISRDNAKNSLYLQMNSLRVEDTALYYCGRHSDGNFAFGYWGQGTLVTVSS
VL: DVLMTQSPLSLPVTPGEPASISCRSSRNIVHINGDTYLEWYLQKPGQSPQLLIYKVSNRFSGVPDRFSGSGSGTDFTLKISRVEAEDVGVYYCFQGSLLPWTFGQGTKVEIK
For B1, the “responses in blood, % of patients” value (CTCL; blood compartment) is given as 49.2%, the “responses in skin, % of patients” value (CTCL; skin compartment) is given as 27.4% and the ORR (CTCL; mogamulizumab monotherapy, at ≥4 months (b5), at 4 months) is given as 25.3%. The “median PFS” value (CTCL; mogamulizumab monotherapy) was 7.8 months.
